Measured values as given in PMC8067754, “Active Transport of Hepatotoxic Pyrrolizidine Alkaloids in HepaRG Cells” (International Journal of Molecular Sciences, 2021).
“And” between values parts separate entries of the source, which are not always exact repeats. Equal entries are not always repeated.

System: HepaRG cells
Assay: Time-dependent PA depletion and PANO formation in cell culture medium of HepaRG cells at 37 °C and 4 °C (LC-MS/MS)
Details: for PA content in cell culture medium, Mean [%]: 700 nM PA; for PA content in cell culture medium, Mean [%] / PANO content in cell culture medium, Mean [%]: percent of initial PA concentration; for PANO content in cell culture medium, Mean [%]: 700 nM parent PA
Experimental: In order to measure time-dependent depletion of PA and PANO content in cell culture medium, cells were seeded at a density of 0.2 × 10^6 cells per well in a 6-well plate and cultivated as described in Section 4.2. After four weeks of cultivation, cells were adapted to serum-free medium and medium substituted with insulin, transferrin, selenium (ITS) serum extender (Capricorn Scientific, Ebsdorfergrund, Germany) 48 h prior to PA incubation for optimal LC-MS/MS measurements. […] Samples were taken after 2 h, 4 h, 8 h and 24 h.
Briefly, chromatographic separation of PA/PANO analytes was achieved on a 50 × 2.1 mm Kinetex ™ 2.6 μm CoreShell EVO C18 100 Å column protected by a SecurityGuard ™ ULTRA EVO C 18 2.1 mm guard column (both Phenomenex, Aschaffenburg, Germany) at a flow rate of 0.4 mL/min on a Shimadzu high performance liquid chromatography (HPLC) apparatus (LC-20AB, SIL-20AC HT, CTO-20AC, CBM-20A, Duisburg, Germany) coupled to an API4000 triple quadrupole MS (Sciex, Darmstadt, Germany). The following MS parameters were used for measurements in positive electrospray ionisation (ESI+) mode: ionisation voltage 2500 V, nebuliser gas 50 psi, heating gas 50 psi, curtain gas 30 psi, temperature 600 °C, collision gas level 7. The substance specific parameters are summarized in Kaltner et al. 2019 [79].

## intermedine
HepaRG, 4 °C (cold), 0h
  PA content in cell culture medium, Mean [%]: 107.988%
  PANO content in cell culture medium, Mean [%]: 0%
HepaRG, 4 °C (cold), 2h
  PA content in cell culture medium, Mean [%]: 103.883%
  PANO content in cell culture medium, Mean [%]: 0.06406%
HepaRG, 4 °C (cold), 4h
  PA content in cell culture medium, Mean [%]: 102.163%
  PANO content in cell culture medium, Mean [%]: 0.04788%
HepaRG, 4 °C (cold), 8h
  PA content in cell culture medium, Mean [%]: 103.746%
  PANO content in cell culture medium, Mean [%]: 0.07456%
HepaRG, 4 °C (cold), 24h
  PA content in cell culture medium, Mean [%]: 100.748%
  PANO content in cell culture medium, Mean [%]: 0.022%
HepaRG, 37 °C (warm), 0h
  PA content in cell culture medium, Mean [%]: 108.544%
  PANO content in cell culture medium, Mean [%]: 0%
HepaRG, 37 °C (warm), 2h
  PA content in cell culture medium, Mean [%]: 103.044%
  PANO content in cell culture medium, Mean [%]: 0.04194%
HepaRG, 37 °C (warm), 4h
  PA content in cell culture medium, Mean [%]: 97.3218%
  PANO content in cell culture medium, Mean [%]: 0.01862%
HepaRG, 37 °C (warm), 8h
  PA content in cell culture medium, Mean [%]: 97.4673%
  PANO content in cell culture medium, Mean [%]: 0.0065%
HepaRG, 37 °C (warm), 24h
  PA content in cell culture medium, Mean [%]: 100.568%
  PANO content in cell culture medium, Mean [%]: 0.0275%
HepaRG, 37 °C, after 24 h, 700 nM
  reduction of PA content in the supernatant: only little reduction
cold, 0h
  PA in medium, Mean [%]: 100%
  PA in medium, single replicates (repl.): 100%
  PANO in medium, Mean [%]: 0%
  PANO in medium, single replicates (repl.): 0%
cold, 2h
  PA in medium, Mean [%]: 96.2366%
  PA in medium, single replicates (repl.): 96.0144% and 91.6565% and 102.06% and 95.215%
  PANO in medium, Mean [%]: 0.05112%
  PANO in medium, single replicates (repl.): 0.03% and 0.05295% and 0.03688% and 0.08463%
cold, 4h
  PA in medium, Mean [%]: 94.7318%
  PA in medium, single replicates (repl.): 93.7752% and 93.3154% and 101.161% and 90.6753%
  PANO in medium, Mean [%]: 0.03748%
  PANO in medium, single replicates (repl.): 0.02966% and 0.02637% and 0% and 0.09388%
cold, 8h
  PA in medium, Mean [%]: 96.1713%
  PA in medium, single replicates (repl.): 95.8013% and 89.4137% and 105.78% and 93.6906%
  PANO in medium, Mean [%]: 0.05989%
  PANO in medium, single replicates (repl.): 0.03944% and 0.1014% and 0% and 0.09868%
cold, 24h
  PA in medium, Mean [%]: 93.3405%
  PA in medium, single replicates (repl.): 92.0698% and 90.9944% and 99.8071% and 90.4909%
  PANO in medium, Mean [%]: 0.01524%
  PANO in medium, single replicates (repl.): 0.001348% and 0% (2×) and 0.05962%
warm, 0h
  PA in medium, Mean [%]: 100%
  PA in medium, single replicates (repl.): 100%
  PANO in medium, Mean [%]: 0%
  PANO in medium, single replicates (repl.): 0%
warm, 2h
  PA in medium, Mean [%]: 94.9033%
  PA in medium, single replicates (repl.): 93.3617% and 94.7726% and 98.2992% and 93.1796%
  PANO in medium, Mean [%]: 0.03999%
  PANO in medium, single replicates (repl.): 0.003057% and 0.04704% and 0.1099% and 0%
warm, 4h
  PA in medium, Mean [%]: 89.9787%
  PA in medium, single replicates (repl.): 93.5042% and 95.5972% and 80.8797% and 89.9336%
  PANO in medium, Mean [%]: 0.01797%
  PANO in medium, single replicates (repl.): 0% (2×) and 0.07092% and 0.000941%
warm, 8h
  PA in medium, Mean [%]: 90.1345%
  PA in medium, single replicates (repl.): 94.7528% and 91.6017% and 83.3876% and 90.7959%
  PANO in medium, Mean [%]: 0.006117%
  PANO in medium, single replicates (repl.): 0% (3×) and 0.02447%
warm, 24h
  PA in medium, Mean [%]: 92.1206%
  PA in medium, single replicates (repl.): 92.1111% and 85.5289% and 89.7263% and 101.116%
  PANO in medium, Mean [%]: 0.02621%
  PANO in medium, single replicates (repl.): 0% (2×) and 0.05428% and 0.05058%
